# Measurements from paper PMC5622171 (Nature Communications, 2017).
# Tests used:
# Experiment in all cases: KINOMEscan kinase profiling
# Format in all cases: binding
# [1] = target: T1, MLK1 (Homo sapiens, UniProt P80192); conditions: read-out: %Inhibition by 10 μM SPA70
# T1 construct: purchased DiscoverX (Ambit Biosciences) KINOMEscan
# Summary of the method: (§1)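 KINOMEscan profiling followed a published protocol. Kinases whose inhibition exceeded a set cut-off were then tested in a dilution series beginning at 30 µM.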
# [2] = target: T2, SRPK2 (Homo sapiens, UniProt P78362); conditions: read-out: %Inhibition by 10 μM SPA70
# T2 construct: purchased DiscoverX (Ambit Biosciences) KINOMEscan
# Summary of the method: as §1
# [3] = target: T3, MST2 (Homo sapiens, UniProt Q13188)
# T3 construct: purchased Ambit Biosciences, now part of DiscoveryX
# T3 sequence (Q13188 whole entry): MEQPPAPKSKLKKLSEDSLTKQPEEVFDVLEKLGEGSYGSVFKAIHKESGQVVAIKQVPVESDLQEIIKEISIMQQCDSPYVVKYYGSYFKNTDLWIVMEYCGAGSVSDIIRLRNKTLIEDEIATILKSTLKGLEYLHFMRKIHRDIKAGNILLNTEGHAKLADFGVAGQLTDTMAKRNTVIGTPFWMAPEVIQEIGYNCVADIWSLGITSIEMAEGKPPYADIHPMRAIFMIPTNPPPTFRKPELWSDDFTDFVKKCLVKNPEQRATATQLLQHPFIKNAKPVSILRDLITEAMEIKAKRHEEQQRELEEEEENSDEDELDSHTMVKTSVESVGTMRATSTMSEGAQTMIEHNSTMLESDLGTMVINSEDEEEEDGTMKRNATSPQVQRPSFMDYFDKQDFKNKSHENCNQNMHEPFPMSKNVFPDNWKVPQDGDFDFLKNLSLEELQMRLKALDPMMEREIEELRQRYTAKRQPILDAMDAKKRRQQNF
# Summary of the method: as §1
# [4] = target: T4, TYRO3 (Homo sapiens, UniProt Q06418); conditions: read-out: %Inhibition by 10 μM SPA70
# T4 construct: purchased DiscoverX (Ambit Biosciences) KINOMEscan
# Summary of the method: as §1
# [5] = target: T5, MST1R (Homo sapiens, UniProt Q04912); conditions: read-out: %Inhibition by 10 μM SPA70
# T5 construct: purchased DiscoverX (Ambit Biosciences) KINOMEscan
# Summary of the method: as §1
# [6] = target: T6, CDC2L2 (Homo sapiens, UniProt Q9UQ88); conditions: read-out: %Inhibition by 10 μM SPA70
# T6 construct: purchased DiscoverX (Ambit Biosciences) KINOMEscan
# Summary of the method: as §1
# [7] = target: T7, LZK (Homo sapiens, UniProt O43283)
# T7 construct: purchased DiscoverX (Ambit Biosciences) KINOMEscan
# Summary of the method: as §1
# [8] = target: T8, MEK1 (Homo sapiens, UniProt Q02750); conditions: read-out: %Inhibition by 10 μM SPA70
# T8 construct: purchased DiscoverX (Ambit Biosciences) KINOMEscan
# Summary of the method: as §1
# [9] = target: T9, EPHA6 (Homo sapiens, UniProt Q9UF33); conditions: read-out: %Inhibition by 10 μM SPA70
# T9 construct: purchased DiscoverX (Ambit Biosciences) KINOMEscan
# Summary of the method: as §1
# [10] = target: T10, ULK3 (Homo sapiens, UniProt Q6PHR2)
# T10 construct: purchased DiscoverX (Ambit Biosciences) KINOMEscan
# Summary of the method: as §1
# [11] = target: T11, BRAF (Homo sapiens, UniProt P15056); conditions: read-out: %Inhibition by 10 μM SPA70
# T11 construct: purchased DiscoverX (Ambit Biosciences) KINOMEscan
# Summary of the method: as §1
# [12] = target: T12, NEK4 (Homo sapiens, UniProt P51957); conditions: read-out: %Inhibition by 10 μM SPA70
# T12 construct: purchased DiscoverX (Ambit Biosciences) KINOMEscan
# Summary of the method: as §1
# [13] = target: T13, ERBB2 (Homo sapiens, UniProt P04626); conditions: read-out: %Inhibition by 10 μM SPA70
# T13 construct: purchased DiscoverX (Ambit Biosciences) KINOMEscan
# Summary of the method: as §1
# [14] = target: T14, CSF1R (Homo sapiens, UniProt P07333)
# T14 construct: purchased Ambit Biosciences, now part of DiscoveryX
# T14 sequence (P07333 20-972): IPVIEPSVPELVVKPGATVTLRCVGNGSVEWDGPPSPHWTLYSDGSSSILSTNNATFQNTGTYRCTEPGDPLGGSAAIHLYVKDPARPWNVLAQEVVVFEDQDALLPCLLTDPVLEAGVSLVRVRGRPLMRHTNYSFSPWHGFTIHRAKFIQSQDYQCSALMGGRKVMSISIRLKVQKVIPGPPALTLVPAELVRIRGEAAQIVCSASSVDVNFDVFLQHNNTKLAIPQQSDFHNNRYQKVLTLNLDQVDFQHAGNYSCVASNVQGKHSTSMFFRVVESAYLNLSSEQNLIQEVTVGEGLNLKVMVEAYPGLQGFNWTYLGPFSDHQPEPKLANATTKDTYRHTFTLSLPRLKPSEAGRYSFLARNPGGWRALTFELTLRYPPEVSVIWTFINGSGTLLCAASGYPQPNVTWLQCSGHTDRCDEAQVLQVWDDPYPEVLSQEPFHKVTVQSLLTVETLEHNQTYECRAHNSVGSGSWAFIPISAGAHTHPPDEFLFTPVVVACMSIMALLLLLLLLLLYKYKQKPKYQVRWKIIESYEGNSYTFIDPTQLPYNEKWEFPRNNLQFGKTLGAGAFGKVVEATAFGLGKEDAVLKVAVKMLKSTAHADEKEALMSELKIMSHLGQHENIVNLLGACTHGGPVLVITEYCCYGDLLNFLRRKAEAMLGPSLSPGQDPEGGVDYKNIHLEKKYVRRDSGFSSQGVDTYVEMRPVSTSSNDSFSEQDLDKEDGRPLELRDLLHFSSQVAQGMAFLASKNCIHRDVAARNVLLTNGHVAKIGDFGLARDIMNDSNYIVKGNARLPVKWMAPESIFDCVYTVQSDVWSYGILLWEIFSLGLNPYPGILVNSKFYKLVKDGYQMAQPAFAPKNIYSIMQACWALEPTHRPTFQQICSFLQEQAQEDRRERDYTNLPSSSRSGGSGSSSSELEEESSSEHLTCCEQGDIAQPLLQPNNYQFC
# Summary of the method: as §1
# [15] = target: T15, MAP3K1 (Homo sapiens, UniProt Q13233); conditions: read-out: %Inhibition by 10 μM SPA70
# T15 construct: purchased DiscoverX (Ambit Biosciences) KINOMEscan
# Summary of the method: as §1
# [16] = target: T16, CTK (Homo sapiens, UniProt P42679); conditions: read-out: %Inhibition by 10 μM SPA70
# T16 construct: purchased DiscoverX (Ambit Biosciences) KINOMEscan
# Summary of the method: as §1
# [17] = target: T17, ALK (Homo sapiens, UniProt Q9UM73); conditions: read-out: %Inhibition by 10 μM SPA70
# T17 construct: purchased DiscoverX (Ambit Biosciences) KINOMEscan
# Summary of the method: as §1
# [18] = target: T18, TIE2 (Homo sapiens, UniProt Q02763); conditions: read-out: %Inhibition by 10 μM SPA70
# T18 construct: purchased DiscoverX (Ambit Biosciences) KINOMEscan
# Summary of the method: as §1
# [19] = target: T19, CSNK1D (Homo sapiens, UniProt P48730); conditions: read-out: %Inhibition by 10 μM SPA70
# T19 construct: purchased DiscoverX (Ambit Biosciences) KINOMEscan
# Summary of the method: as §1
# [20] = target: T20, GAK (Homo sapiens, UniProt O14976); conditions: read-out: %Inhibition by 10 μM SPA70
# T20 construct: purchased DiscoverX (Ambit Biosciences) KINOMEscan
# Summary of the method: as §1
# [21] = target: T21, SRC (Homo sapiens, UniProt P12931); conditions: read-out: %Inhibition by 10 μM SPA70
# T21 construct: purchased DiscoverX (Ambit Biosciences) KINOMEscan
# T21 sequence (P12931 whole entry): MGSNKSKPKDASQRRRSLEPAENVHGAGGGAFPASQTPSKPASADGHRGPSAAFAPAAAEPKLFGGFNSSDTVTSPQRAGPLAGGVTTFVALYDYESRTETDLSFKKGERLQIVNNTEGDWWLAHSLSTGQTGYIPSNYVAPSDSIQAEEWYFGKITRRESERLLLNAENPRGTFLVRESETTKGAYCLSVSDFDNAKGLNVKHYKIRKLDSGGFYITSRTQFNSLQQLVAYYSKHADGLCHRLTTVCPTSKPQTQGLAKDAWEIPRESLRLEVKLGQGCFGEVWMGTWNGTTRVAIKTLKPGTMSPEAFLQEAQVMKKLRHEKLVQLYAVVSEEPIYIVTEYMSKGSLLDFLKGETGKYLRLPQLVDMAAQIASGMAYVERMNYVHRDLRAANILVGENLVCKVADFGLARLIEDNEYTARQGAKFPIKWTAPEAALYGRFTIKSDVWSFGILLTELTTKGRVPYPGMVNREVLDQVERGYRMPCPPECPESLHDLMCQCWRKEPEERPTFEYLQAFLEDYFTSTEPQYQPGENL
# Summary of the method: as §1
# [22] = target: T22, MARK3 (Homo sapiens, UniProt P27448); conditions: read-out: %Inhibition by 10 μM SPA70
# T22 construct: purchased DiscoverX (Ambit Biosciences) KINOMEscan
# T22 sequence (P27448 whole entry): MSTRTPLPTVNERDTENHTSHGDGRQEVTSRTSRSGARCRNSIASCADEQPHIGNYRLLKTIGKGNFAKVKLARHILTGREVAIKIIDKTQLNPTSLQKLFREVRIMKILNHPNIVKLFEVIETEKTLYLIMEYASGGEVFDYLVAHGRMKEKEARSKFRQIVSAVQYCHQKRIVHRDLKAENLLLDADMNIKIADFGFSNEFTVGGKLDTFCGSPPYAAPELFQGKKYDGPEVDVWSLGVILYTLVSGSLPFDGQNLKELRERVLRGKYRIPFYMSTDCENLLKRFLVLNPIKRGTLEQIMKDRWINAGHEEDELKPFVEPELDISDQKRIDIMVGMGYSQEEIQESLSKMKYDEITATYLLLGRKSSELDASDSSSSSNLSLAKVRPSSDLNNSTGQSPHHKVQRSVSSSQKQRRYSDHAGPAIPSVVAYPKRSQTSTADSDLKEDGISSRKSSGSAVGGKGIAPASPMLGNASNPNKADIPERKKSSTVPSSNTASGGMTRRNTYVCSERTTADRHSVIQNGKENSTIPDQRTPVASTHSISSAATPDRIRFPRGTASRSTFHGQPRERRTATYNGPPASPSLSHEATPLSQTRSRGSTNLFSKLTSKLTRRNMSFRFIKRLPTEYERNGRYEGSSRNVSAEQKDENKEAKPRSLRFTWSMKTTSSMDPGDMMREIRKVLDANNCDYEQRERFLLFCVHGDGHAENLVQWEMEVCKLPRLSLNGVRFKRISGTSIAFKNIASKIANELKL
# Summary of the method: as §1
# [23] = target: T23, CDK7 (Homo sapiens, UniProt P50613); conditions: read-out: %Inhibition by 10 μM SPA70
# T23 construct: purchased DiscoverX (Ambit Biosciences) KINOMEscan
# Summary of the method: as §1
# [24] = target: T24, MYO3B (Homo sapiens, UniProt Q8WXR4); conditions: read-out: %Inhibition by 10 μM SPA70
# T24 construct: purchased DiscoverX (Ambit Biosciences) KINOMEscan
# Summary of the method: as §1
# [25] = target: T25, TNIK (Homo sapiens, UniProt Q9UKE5); conditions: read-out: %Inhibition by 10 μM SPA70
# T25 construct: purchased DiscoverX (Ambit Biosciences) KINOMEscan
# Summary of the method: as §1
# [26] = target: T26, RSK3(Kin.Dom.2-C-terminal) (Homo sapiens, UniProt Q15349); conditions: read-out: %Inhibition by 10 μM SPA70
# T26 construct: RSK3(Kin.Dom.2-C-terminal); purchased DiscoverX (Ambit Biosciences) KINOMEscan
# Summary of the method: as §1
# [27] = target: T27, MAP4K2 (Homo sapiens, UniProt Q12851); conditions: read-out: %Inhibition by 10 μM SPA70
# T27 construct: purchased DiscoverX (Ambit Biosciences) KINOMEscan
# Summary of the method: as §1
# [28] = target: T28, MAPKAPK2 (Homo sapiens, UniProt P49137); conditions: read-out: %Inhibition by 10 μM SPA70
# T28 construct: purchased DiscoverX (Ambit Biosciences) KINOMEscan
# Summary of the method: as §1
# [29] = target: T29, EPHA1 (Homo sapiens, UniProt P21709); conditions: read-out: %Inhibition by 10 μM SPA70
# T29 construct: purchased DiscoverX (Ambit Biosciences) KINOMEscan
# Summary of the method: as §1
# [30] = target: T30, CDK8 (Homo sapiens, UniProt P49336)
# T30 construct: purchased DiscoverX (Ambit Biosciences) KINOMEscan
# Summary of the method: as §1
# [31] = target: T31, TLK2 (Homo sapiens, UniProt Q86UE8); conditions: read-out: %Inhibition by 10 μM SPA70
# T31 construct: purchased DiscoverX (Ambit Biosciences) KINOMEscan
# Summary of the method: as §1
# [32] = target: T32, STK36 (Homo sapiens, UniProt Q9NRP7); conditions: read-out: %Inhibition by 10 μM SPA70
# T32 construct: purchased DiscoverX (Ambit Biosciences) KINOMEscan
# Summary of the method: as §1
# [33] = target: T33, FLT1 (Homo sapiens, UniProt P17948); conditions: read-out: %Inhibition by 10 μM SPA70
# T33 construct: purchased DiscoverX (Ambit Biosciences) KINOMEscan
# Summary of the method: as §1
# [34] = target: T34, EPHA4 (Homo sapiens, UniProt P54764); conditions: read-out: %Inhibition by 10 μM SPA70
# T34 construct: purchased DiscoverX (Ambit Biosciences) KINOMEscan
# Summary of the method: as §1
# [35] = target: T35, ACVR2A (Homo sapiens, UniProt P27037); conditions: read-out: %Inhibition by 10 μM SPA70
# T35 construct: purchased DiscoverX (Ambit Biosciences) KINOMEscan
# T35 sequence (P27037 20-513): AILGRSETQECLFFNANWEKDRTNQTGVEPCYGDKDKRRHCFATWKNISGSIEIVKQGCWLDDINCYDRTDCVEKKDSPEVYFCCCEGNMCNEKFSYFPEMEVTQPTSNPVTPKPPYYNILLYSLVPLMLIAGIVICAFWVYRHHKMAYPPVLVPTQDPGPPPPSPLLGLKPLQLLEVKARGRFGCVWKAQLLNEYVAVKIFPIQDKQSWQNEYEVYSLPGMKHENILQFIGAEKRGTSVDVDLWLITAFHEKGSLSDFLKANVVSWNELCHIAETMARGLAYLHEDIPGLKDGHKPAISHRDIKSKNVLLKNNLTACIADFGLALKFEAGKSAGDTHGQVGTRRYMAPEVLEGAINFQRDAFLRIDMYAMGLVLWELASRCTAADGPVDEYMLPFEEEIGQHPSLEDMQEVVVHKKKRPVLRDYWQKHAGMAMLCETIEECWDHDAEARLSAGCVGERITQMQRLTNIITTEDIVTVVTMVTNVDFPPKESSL
# Summary of the method: as §1
# [36] = target: T36, FLT4 (Homo sapiens, UniProt P35916); conditions: read-out: %Inhibition by 10 μM SPA70
# T36 construct: purchased DiscoverX (Ambit Biosciences) KINOMEscan
# Summary of the method: as §1
# [37] = target: T37, SLK (Homo sapiens, UniProt Q9H2G2); conditions: read-out: %Inhibition by 10 μM SPA70
# T37 construct: purchased DiscoverX (Ambit Biosciences) KINOMEscan
# T37 sequence (Q9H2G2 whole entry): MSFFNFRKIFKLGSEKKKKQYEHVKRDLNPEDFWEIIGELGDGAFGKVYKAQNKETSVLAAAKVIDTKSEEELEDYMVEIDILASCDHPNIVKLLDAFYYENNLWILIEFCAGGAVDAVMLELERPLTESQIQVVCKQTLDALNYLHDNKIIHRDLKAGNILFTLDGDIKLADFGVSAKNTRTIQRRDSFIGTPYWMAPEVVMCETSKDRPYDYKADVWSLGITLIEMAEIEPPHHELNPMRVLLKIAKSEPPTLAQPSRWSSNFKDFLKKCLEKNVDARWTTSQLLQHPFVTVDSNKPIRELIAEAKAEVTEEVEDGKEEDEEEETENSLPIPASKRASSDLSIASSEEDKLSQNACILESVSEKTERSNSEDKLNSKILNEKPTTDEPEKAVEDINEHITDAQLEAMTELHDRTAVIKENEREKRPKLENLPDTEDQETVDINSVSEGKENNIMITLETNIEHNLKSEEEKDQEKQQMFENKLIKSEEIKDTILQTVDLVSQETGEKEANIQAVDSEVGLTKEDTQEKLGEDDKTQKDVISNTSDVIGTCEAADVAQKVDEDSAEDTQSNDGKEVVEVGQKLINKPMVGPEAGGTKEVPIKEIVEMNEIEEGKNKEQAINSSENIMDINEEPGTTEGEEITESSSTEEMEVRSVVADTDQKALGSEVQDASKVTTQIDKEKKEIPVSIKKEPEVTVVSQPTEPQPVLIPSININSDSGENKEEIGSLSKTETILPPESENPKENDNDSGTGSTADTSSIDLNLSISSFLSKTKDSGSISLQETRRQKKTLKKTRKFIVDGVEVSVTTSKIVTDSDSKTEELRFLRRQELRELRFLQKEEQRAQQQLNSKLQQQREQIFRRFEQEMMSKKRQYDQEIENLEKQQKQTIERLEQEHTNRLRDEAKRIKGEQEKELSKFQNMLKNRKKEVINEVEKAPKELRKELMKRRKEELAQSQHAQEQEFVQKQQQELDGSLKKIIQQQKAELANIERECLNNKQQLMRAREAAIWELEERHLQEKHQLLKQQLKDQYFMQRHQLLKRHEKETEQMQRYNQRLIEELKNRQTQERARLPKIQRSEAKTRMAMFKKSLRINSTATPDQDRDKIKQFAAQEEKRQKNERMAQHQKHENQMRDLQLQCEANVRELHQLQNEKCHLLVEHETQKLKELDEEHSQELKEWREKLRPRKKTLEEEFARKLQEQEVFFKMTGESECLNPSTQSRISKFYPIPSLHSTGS
# Summary of the method: as §1
# [38] = target: T38, TNNI3K (Homo sapiens, UniProt Q59H18); conditions: read-out: %Inhibition by 10 μM SPA70
# T38 construct: purchased DiscoverX (Ambit Biosciences) KINOMEscan
# Summary of the method: as §1
# [39] = target: T39, ERK4 (Homo sapiens, UniProt P31152); conditions: read-out: %Inhibition by 10 μM SPA70
# T39 construct: purchased DiscoverX (Ambit Biosciences) KINOMEscan
# T39 sequence (P31152 whole entry): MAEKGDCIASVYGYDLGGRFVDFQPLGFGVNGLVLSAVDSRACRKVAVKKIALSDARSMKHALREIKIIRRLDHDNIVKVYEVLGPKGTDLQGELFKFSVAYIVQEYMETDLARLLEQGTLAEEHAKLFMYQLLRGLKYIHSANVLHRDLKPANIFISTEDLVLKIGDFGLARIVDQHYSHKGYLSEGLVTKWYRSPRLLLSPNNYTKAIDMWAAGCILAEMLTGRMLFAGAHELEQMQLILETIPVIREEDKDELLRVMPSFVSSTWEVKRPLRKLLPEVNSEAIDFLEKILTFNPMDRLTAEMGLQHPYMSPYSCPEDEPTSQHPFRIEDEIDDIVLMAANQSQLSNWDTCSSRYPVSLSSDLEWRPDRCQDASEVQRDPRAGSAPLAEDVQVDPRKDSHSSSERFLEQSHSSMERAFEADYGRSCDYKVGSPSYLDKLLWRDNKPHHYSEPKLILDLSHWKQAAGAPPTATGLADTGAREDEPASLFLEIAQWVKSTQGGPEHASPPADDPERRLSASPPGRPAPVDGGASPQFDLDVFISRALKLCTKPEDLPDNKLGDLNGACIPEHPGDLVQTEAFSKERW
# Summary of the method: as §1
# [40] = target: T40, JNK3 (Homo sapiens, UniProt P53779)
# T40 construct: purchased DiscoverX (Ambit Biosciences) KINOMEscan
# Summary of the method: as §1
# [41] = target: T41, MARK2 (Homo sapiens, UniProt Q7KZI7); conditions: read-out: %Inhibition by 10 μM SPA70
# T41 construct: purchased DiscoverX (Ambit Biosciences) KINOMEscan
# Summary of the method: as §1
# [42] = 11-point 3-fold serial dilutions starting from 30 µM
# [43] = read-out: %Inhibition by 10 μM SPA70
smiles,measurement,setting,value
COc1ccc(OC)c(-n2nnc(S(=O)(=O)c3ccc(C(C)(C)C)cc3)c2C)c1 [SPA70],inhibition at 10 µM,[1],0%
same,inhibition at 10 µM,[2],0%
same,Kd,[3]; [42],> 30 µM
same,inhibition at 10 µM,[3]; [43],62%
same,inhibition at 10 µM,[4],0%
same,inhibition at 10 µM,[5],3%
same,inhibition at 10 µM,[6],9%
same,%Inhibition by 10 μM SPA70,[7],0%
same,inhibition at 10 µM,[8],11%
same,inhibition at 10 µM,[9],0%
same,%Inhibition by 10 μM SPA70,[10],2%
same,inhibition at 10 µM,[11],0%
same,inhibition at 10 µM,[12],21%
same,inhibition at 10 µM,[13],5%
same,Kd,[14]; [42],4 µM
same,inhibition at 10 µM,[14]; [43],63%
same,inhibition at 10 µM,[15],0%
same,inhibition at 10 µM,[16],6%
same,inhibition at 10 µM,[17],0%
same,inhibition at 10 µM,[18],0%
same,inhibition at 10 µM,[19],3%
same,inhibition at 10 µM,[20],3%
same,inhibition at 10 µM,[21],0%
same,inhibition at 10 µM,[22],2%
same,inhibition at 10 µM,[23],19%
same,inhibition at 10 µM,[24],5%
same,inhibition at 10 µM,[25],10%
same,inhibition at 10 µM,[26],19%
same,inhibition at 10 µM,[27],0%
same,inhibition at 10 µM,[28],20%
same,inhibition at 10 µM,[29],0%
same,%Inhibition by 10 μM SPA70,[30],2%
same,inhibition at 10 µM,[31],0%
same,inhibition at 10 µM,[32],0%
same,inhibition at 10 µM,[33],0%
same,inhibition at 10 µM,[34],0%
same,inhibition at 10 µM,[35],0%
same,inhibition at 10 µM,[36],2%
same,inhibition at 10 µM,[37],9%
same,inhibition at 10 µM,[38],0%
same,inhibition at 10 µM,[39],0%
same,%Inhibition by 10 μM SPA70,[40],9%
same,inhibition at 10 µM,[41],16%
